Experimental data: US6552009B2, “Compositions and methods of treating abnormal cell proliferation” (Gentrix LLC, priority 1998, dated 2003)

Test system: moderate to severe papular-pustular acne
Type: in vivo, human
Conditions: for skin irritation: human, in vivo
Procedure: This example compares therapeutically applied retinyl palmitate, retinoic acid, calcitriol, and combinations thereof in a cream at different concentrations with the effectiveness of the cream without any of the above compounds present in treating acne. The base cream used to prepare the experimental formulations is the commercially available […] cream. The different compounds at different concentrations were added to the cream and mixed very well. Sixty six volunteers were recruited and were randomly assigned to each of the groups. the subjects were selected on the basis of their having moderate to severe papular-pustular acne. Each group consisted of 3 males and 3 females. No other acne treatment was permitted during the period. Preparations were applied to the face in the morning and evening after washing the face with ordinary soap. Observations were made at time 0, 1, 4, and 8 weeks to assure that treatment was carried out according to direction. Judgments of “worse”, “no change”, “mild”, and “good” were made after 8 weeks of treatment.

| SMILES | skin irritation | improvement in treating acne versus lower concentrations (concentrations at about 1.5% and more) |
| --- | --- | --- |
| CC1=C(/C=C/C(C)=C/C=C/C(C)=C/CO)C(C)(C)CCC1=O [4-oxo-retinol] | did not | – |
| CC1=C(/C=C/C(C)=C/C=C/C(C)=C/C(=O)O)C(C)(C)CCC1 [retinoic acid, reference compound] | caused skin irritation | – |
| C=C1/C(=C\C=C2/CCC[C@]3(C)[C@@H]([C@H](C)CCCC(C)(C)O)CC[C@@H]23)C[C@@H](O)C[C@@H]1O [calcitriol, reference compound] | caused skin irritation | – |
| CCCCCCCCCCCCCCCC(=O)OC/C=C(C)/C=C/C=C(C)/C=C/C1=C(C)CCCC1(C)C [retinyl palmitate] | did not | remarkable improvement over lower concentrations |
